The nature of series [1]: Water solubility by microplate nephelometer. In kind it is physicochemical. On the procedure: The water solubility was determined using a microplate nephelometer (NEPHELOstar, BMG labtech, Cary, N.C.).
Series [2] can be described thus: Mouse liver microsome metabolic stability test. The following applies: mouse liver microsome assay. Format: in vitro ADME.
Series [3] concerns BJeLR cells. As to the kind of experiment: RSL testing: growth inhibition (alamar blue) in BJeLR cells. In kind it is cell-based. Conditions: Homo sapiens, BJeLR. The protocol:
Cell viability was determined using alamar blue and percent growth inhibition computed as described previously (Id.).

This is an account of results in patent US9695133B2, “Quinazolinone-based oncogenic-RAS-selective lethal compounds and their use” (THE TRUSTEES OF COLUMBIA UNIVERSITY IN THE CITY OF NEW YORK, priority 2012, dated 2017).

pEC50: −log10 of the molar value. Like-named read-outs stand apart in the source and are kept apart here.

Turning to `CC(C)Oc1ccc(CN2CCNCC2)cc1-n1c(CN2CCN(C(=O)COc3ccc(Cl)cc3)CC2)nc2ccccc2c1=O` [PE, 2-((4-(2-(4-chlorophenoxy)ethanoyl)piperazin-1-yl)methyl)-3-(2-isopropoxy-5-(piperazin-1-ylmethyl)phenyl)quinazolin-4(3H)-one], the solubility result in series [1] (water, nephelometry) was “improved solubility”. For the same molecule, the metabolic stability result in series [2] is given as “improved metabolic stability in comparison to erastin”.

Take `CCOc1ccccc1-n1c(C(C)N2CCN(C(=O)COc3ccc(Cl)cc3)CC2)nc2ccccc2c1=O` (stereo not drawn) [erastin]: the pEC50 in series [3] (read-out: EC50 (BJELR)) is 5.74; in series [3] (read-out: EC50 (BJeLR)), 5.75. Further, the solubility result in series [1] is reported as “poor solubility”. The metabolic stability result in series [2] is on record as “metabolic instability”.
